From patent US12060347B2 (BRISTOL-MYERS SQUIBB COMPANY, priority 2016, dated 2024)

Molecular target: T1, human PAR4 (Homo sapiens, UniProt Q96RI0)
T1 construct: expressed in transfected cells; host or cells: HEK293 PAR4 Clone 1.2A (BMS Arctic ID 383940)
T1 sequence (Q96RI0 18-385): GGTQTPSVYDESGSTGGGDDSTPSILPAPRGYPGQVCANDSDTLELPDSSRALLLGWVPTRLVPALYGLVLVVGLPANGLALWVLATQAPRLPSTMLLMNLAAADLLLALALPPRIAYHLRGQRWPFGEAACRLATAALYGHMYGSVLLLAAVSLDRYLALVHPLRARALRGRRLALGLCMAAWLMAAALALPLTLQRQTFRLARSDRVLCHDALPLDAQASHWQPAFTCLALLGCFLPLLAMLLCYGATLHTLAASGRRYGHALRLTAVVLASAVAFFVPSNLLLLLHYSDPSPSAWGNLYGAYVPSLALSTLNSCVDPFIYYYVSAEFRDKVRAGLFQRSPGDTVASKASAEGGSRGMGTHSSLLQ
Experiment: PAR4 FLIPR assay: antagonism of agonist-peptide-induced calcium mobilization in PAR4-expressing HEK293 cells
Format: cell-based
Details: H-Ala-Phe(4-F)-[…]NH2-induced intracellular calcium mobilization, 11-point curves

| Compound | IC50 |
| --- | --- |
| COc1cnc2c(-c3nc4c(F)c(F)c(OC)cc4s3)cc(C)cc2n1 [Example 278, 4,5-difluoro-6-methoxy-2-(2-methoxy-7-methylquinoxalin-5-yl)benzo[d]thiazole] | 4.6 nM |
| COc1cnc2c(-c3nc4cc(C)c(OC)cc4s3)cc(C)cc2n1 [Example 279, 6-methoxy-2-(2-methoxy-7-methylquinoxalin-5-yl)-5-methylbenzo[d]thiazole] | 18 nM |
| COc1cnc2c(-c3nc4cc(F)c(OC)cc4s3)cc(C)cc2n1 [Example 280, 5-fluoro-6-methoxy-2-(2-methoxy-7-methylquinoxalin-5-yl)benzo[d]thiazole] | 4.3 nM |
| COCc1cnc2c(-c3nc4c(C)cc(O)cc4s3)cc(C)cc2n1 [Example 281, 2-(2-(methoxymethyl)-7-methylquinoxalin-5-yl)-4-methylbenzo[d]thiazol-6-ol] | 3.6 nM |
| COc1cnc2c(-c3nc4c(Cl)c(F)c(OC)cc4s3)cc(C)cc2n1 [Example 282, 4-chloro-5-fluoro-6-methoxy-2-(2-methoxy-7-methylquinoxalin-5-yl)benzo[d]thiazole] | 1.1 nM |
| COCc1cnc2c(-c3nc4c(Cl)c(F)c(OC)cc4s3)cc(C)cc2n1 [Example 283, 4-chloro-5-fluoro-6-methoxy-2-(2-(methoxymethyl)-7-methylquinoxalin-5-yl)benzo[d]thiazole] | 1.9 nM |
| COCc1cnc2c(-c3nc4c(C)c(C)c(OC)cc4s3)cc(C)cc2n1 [Example 284, 6-methoxy-2-(2-(methoxymethyl)-7-methylquinoxalin-5-yl)-4,5-dimethylbenzo[d]thiazole] | 5.9 nM |
| COC(=O)COc1cc2sc(-c3cc(C)cc4nc(OC)cnc34)nc2c(C)c1F [Example 285, methyl 2-((5-fluoro-2-(2-methoxy-7-methylquinoxalin-5-yl)-4-methylbenzo[d]thiazol-6-yl)oxy)acetate] | 16 nM |
| COCc1cnc2c(-c3nc4c(C)c(F)c(OCC(=O)OC)cc4s3)cc(C)cc2n1 [Example 286, methyl 2-((5-fluoro-2-(2-(methoxymethyl)-7-methylquinoxalin-5-yl)-4-methylbenzo[d]thiazol-6-yl)oxy)acetate] | 0.5 nM |
| COC(=O)COc1cc2sc(-c3cc(C)cc4nc(OC)cnc34)nc2c(Cl)c1F [Example 287, methyl 2-((4-chloro-5-fluoro-2-(2-methoxy-7-methylquinoxalin-5-yl)benzo[d]thiazol-6-yl)oxy)acetate] | 8.5 nM |
| COc1cnc2c(-c3nc4c(C)c(F)c(OCCO)cc4s3)cc(C)cc2n1 [Example 288, 2-((5-fluoro-2-(2-methoxy-7-methylquinoxalin-5-yl)-4-methylbenzo[d]thiazol-6-yl)oxy)ethanol] | 8.6 nM |
| COCc1cnc2c(-c3nc4c(C)c(F)c(OCCO)cc4s3)cc(C)cc2n1 [Example 289, 2-((5-fluoro-2-(2-(methoxymethyl)-7-methylquinoxalin-5-yl)-4-methylbenzo[d]thiazol-6-yl)oxy)ethanol] | 1.3 nM |
| COCc1cnc2c(-c3nc4c(C)c(F)c(O)cc4s3)cc(C)cc2n1 [Example 290, 5-fluoro-2-(2-(methoxymethyl)-7-methylquinoxalin-5-yl)-4-methylbenzo[d] thiazol-6-ol] | 6 nM |
| COCc1cnc2c(-c3nc4c(Cl)c(F)c(O)cc4s3)cc(C)cc2n1 [Example 291, 4-chloro-5-fluoro-2-(2-(methoxymethyl)-7-methylquinoxalin-5-yl) benzo[d]thiazol-6-ol] | 11 nM |
| COCc1cnc2c(-c3nc4c(Cl)c(F)c(OCC(=O)OC)cc4s3)cc(C)cc2n1 [Example 292, methyl 2-((4-chloro-5-fluoro-2-(2-(methoxymethyl)-7-methylquinoxalin-5-yl)benzo[d]thiazol-6-yl)oxy)acetate] | 0.8 nM |
| COCc1cnc2c(-c3nc4c(Cl)c(F)c(OCCO)cc4s3)cc(C)cc2n1 [Example 293, 2-((4-chloro-5-fluoro-2-(2-(methoxymethyl)-7-methylquinoxalin-5-yl)benzo[d]thiazol-6-yl)oxy)ethanol] | 1 nM |
| COc1cnc2c(-c3nc4c(C)c(F)c(OC)cc4s3)cc(C)cc2n1 [Example 294, 5-fluoro-6-methoxy-2-(2-methoxy-7-methylquinoxalin-5-yl)-4-methylbenzo[d]thiazole] | 5.2 nM |
| COCc1cnc2c(-c3nc4c(C)c(F)c(OC)cc4s3)cc(C)cc2n1 [Example 295, 5-fluoro-6-methoxy-2-(2-(methoxymethyl)-7-methylquinoxalin-5-yl)-4-methylbenzo[d]thiazole] | 0.7 nM |
| COCc1cnc2c(-c3nc4c(C)c(C)c(OCC(=O)OC)cc4s3)cc(C)cc2n1 [Example 296, methyl 2-((2-(2-(methoxymethyl)-7-methylquinoxalin-5-yl)-4,5-dimethylbenzo[d]thiazol-6-yl)oxy)acetate] | 1.2 nM |

| Compound | IC50 |
| --- | --- |
| COCc1cnc2c(-c3nc4c(C)c(C)c(OCCO)cc4s3)cc(C)cc2n1 [Example 297, 2-((2-(2-(methoxymethyl)-7-methylquinoxalin-5-yl)-4,5-dimethylbenzo[d]thiazol-6-yl)oxy)ethanol] | 5.7 nM |
| COCc1cnc2c(-c3nc4c(Cl)c(C)c(OC)cc4s3)cc(C)cc2n1 [Example 298, 4-chloro-6-methoxy-2-(2-(methoxymethyl)-7-methylquinoxalin-5-yl)-5-methylbenzo[d]thiazole] | 2.1 nM |
| COc1cnc2c(-c3nc4c(Cl)c(C)c(OC)cc4s3)cc(C)cc2n1 [Example 299, 4-chloro-6-methoxy-2-(2-methoxy-7-methylquinoxalin-5-yl)-5-methylbenzo[d] thiazole] | 10 nM |
| COCc1cnc2c(-c3nc4c(CO)c(C)c(OC)cc4s3)cc(C)cc2n1 [Example 300] | 0.9 nM |
| COc1cnc2c(-c3nc4c(CO)c(C)c(OC)cc4s3)cc(C)cc2n1 [Example 301] | 15 nM |
| COc1cnc2c(-c3nc4c(C)c(F)c(OCCOC(=O)Nc5ccc(F)nc5)cc4s3)cc(C)cc2n1 [Example 302, 2-((5-fluoro-2-(2-methoxy-7-methylquinoxalin-5-yl)-4-methylbenzo[d]thiazol-6-yl)oxy)ethyl (6-fluoropyridin-3-yl)carbamate] | 3.2 nM |
| COCc1cnc2c(-c3nc4c(C)c(F)c(OCCOC(=O)Nc5ccc(F)nc5)cc4s3)cc(C)cc2n1 [Example 303, 2-((5-fluoro-2-(2-(methoxymethyl)-7-methylquinoxalin-5-yl)-4-methylbenzo[d]thiazol-6-yl)oxy)ethyl (6-fluoropyridin-3-yl) carbamate] | 0.9 nM |
| COc1cnc2c(-c3nc4c(Cl)c(F)c(OCCOC(=O)Nc5ccc(F)nc5)cc4s3)cc(C)cc2n1 [Example 304, 2-((4-chloro-5-fluoro-2-(2-methoxy-7-methylquinoxalin-5-yl)benzo[d]thiazol-6-yl)oxy)ethyl (6-fluoropyridin-3-yl)carbamate] | 2.3 nM |
| COCc1cnc2c(-c3nc4c(Cl)c(F)c(OCCOC(=O)Nc5ccc(F)nc5)cc4s3)cc(C)cc2n1 [Example 305, 2-((4-chloro-5-fluoro-2-(2-(methoxymethyl)-7-methylquinoxalin-5-yl)benzo[d]thiazol-6-yl)oxy)ethyl (6-fluoropyridin-3-yl)carbamate] | 1 nM |
| CCOc1cc(C)c2nc(-c3cc(C)cc4nc(COC)cnc34)sc2c1 [Example 306] | 1 nM |
| COCc1cnc2c(-c3nc4c(C)cc(OCc5ccccc5)cc4s3)cc(C)cc2n1 [Example 307, 6-(benzyloxy)-2-(2-(methoxymethyl)-7-methylquinoxalin-5-yl)-4-methylbenzo[d]thiazole] | 0.9 nM |
| COCc1cnc2c(-c3nc4ccc(CO)cc4s3)cc(C)cc2n1 [Example 308, (2-(2-(methoxymethyl)-7-methylquinoxalin-5-yl)benzo[d]thiazol-6-yl)methanol] | 3.6 nM |
| COCc1ccc2nc(-c3cc(C)cc4nc(COC)cnc34)sc2c1 [Example 309, 6-(methoxymethyl)-2-(2-(methoxymethyl)-7-methylquinoxalin-5-yl)benzo[d]thiazole] | 3.3 nM |
| COCc1cnc2c(-c3nc4cc(O)c(OC)cc4s3)cc(C)cc2n1 [Example 310, 6-methoxy-2-(2-(methoxymethyl)-7-methylquinoxalin-5-yl)benzo[d]thiazol-5-ol] | 9.1 nM |
| COCc1cnc2c(-c3nc4cc(OC)c(OC)cc4s3)cc(C)cc2n1 [Example 311, 5,6-dimethoxy-2-(2-(methoxymethyl)-7-methylquinoxalin-5-yl)benzo[d]thiazole] | 93 nM |
| COCc1cnc2c(-c3nc4cc(CO)c(OC)cc4s3)cc(C)cc2n1 [Example 312, (6-methoxy-2-(2-(methoxymethyl)-7-methylquinoxalin-5-yl)benzo[d]thiazol-5-yl) methanol] | 6.7 nM |
| COCc1cnc2c(-c3nc4c(OC)c(F)c(Cl)cc4s3)cc(C)cc2n1 [Example 313, 6-chloro-5-fluoro-4-methoxy-2-(2-(methoxymethyl)-7-methylquinoxalin-5-yl) benzo[d]thiazole] | 2.9 nM |
| COCc1cnc2c(-c3nc4c(C5CC5)c(F)c(OC)cc4s3)cc(C)cc2n1 [Example 314, 4-cyclopropyl-5-fluoro-6-methoxy-2-(2-(methoxymethyl)-7-methylquinoxalin-5-yl)benzo[d]thiazole] | 10 nM |
| CCOc1cc2sc(-c3cc(C)cc4nc(OC)cnc34)nc2c(F)c1F [Example 315, 6-ethoxy-4,5-difluoro-2-(2-methoxy-7-methylquinoxalin-5-yl)benzo[d]thiazole] | 3.3 nM |
